{"source": "patent US8501746B2", "about": "“Organic compounds” (Xenon Pharmaceuticals Inc., priority 2006, dated 2013)", "data": [{"values": [{"smiles": "Cc1cc(-n2ccc(OCc3ccccc3)cc2=O)sc1C(=O)NCc1cccc(F)c1", "note": "[Example 3.22, 5-(4-(Benzyloxy)-2-oxopyridin-1(2H)-yl)-N-(3-fluorobenzyl)-3-methylthiophene-2-carboxamide]", "melting point": "140 to 141 °C"}, {"smiles": "CCNC(=O)c1sc(-n2ccc(OCc3ccccc3)cc2=O)cc1C", "note": "[Example 3.23, 5-(4-(Benzyloxy)-2-oxopyridin-1(2H)-yl)-N-ethyl-3-methylthiophene-2-carboxamide]", "melting point": "158 to 160 °C"}, {"smiles": "Cc1nc(-n2ccc(C(F)(F)F)cc2=O)sc1C(=O)NCc1cccnc1", "note": "[Example 3.24, 4-Methyl-2-(2-oxo-4-(trifluoromethyl)pyridin-1(2H)-yl)-N-(pyridin-3-ylmethyl)thiazole-5-carboxamide]", "melting point": "172 to 173 °C"}, {"smiles": "Cc1nc(-n2ccc(OCc3ccccc3)cc2=O)sc1C(=O)NCc1cccnc1", "note": "[Example 3.25, 2-(4-(Benzyloxy)-2-oxopyridin-1(2H)-yl)-4-methyl-N-(pyridin-3-ylmethyl)thiazole-5-carboxamide]", "melting point": "208 to 209 °C"}, {"smiles": "Cc1nc(-n2ccc(NC(=O)c3ccccc3)cc2=O)sc1C(=O)NCc1ccccc1", "note": "[Example 4, 2-(4-Benzamido-2-oxopyridin-1(2H)-yl)-N-benzyl-4-methylthiazole-5-carboxamide]", "melting point": "246 to 248 °C"}, {"smiles": "Cc1nc(-n2ccc(NCc3ccccc3)cc2=O)sc1C(=O)NCc1ccccc1", "note": "[Example 5, N-benzyl-2-(4-(benzylamino)-2-oxopyridin-1(2H)-yl)-4-methylthiazole-5-carboxamide]", "melting point": "253 to 255 °C"}, {"smiles": "Cc1nc(-n2ccc(OCc3cccnc3)cc2=O)sc1C(=O)NCc1ccccc1", "note": "[Example 6, N-Benzyl-4-methyl-2-(2-oxo-4-(pyridin-3-ylmethoxy)pyridin-1(2H)-yl)thiazole-5-carboxamide]", "melting point": "214 to 216 °C"}, {"smiles": "Cc1nc(-n2ccc(OCc3ccccn3)cc2=O)sc1C(=O)NCc1ccccc1", "note": "[Example 6.1, N-Benzyl-4-methyl-2-(2-oxo-4-(pyridin-2-ylmethoxy)pyridin-1(2H)-yl)thiazole-5-carboxamide]", "melting point": "202 to 205 °C"}, {"smiles": "Cc1nc(-n2cccc(O)c2=O)sc1C(=O)NCc1ccccc1", "note": "[Example 7, N-Benzyl-2-(3-hydroxy-2-oxopyridin-1(2H)-yl)-4-methylthiazole-5-carboxamide]", "melting point": "225 to 228 °C"}, {"smiles": "O=C(NCc1ccccc1)c1csc(-n2ccc(O)cc2=O)c1", "note": "[Example 7.3, N-Benzyl-5-(4-hydroxy-2-oxopyridin-1(2H)-yl)thiophene-3-carboxamide]", "melting point": "150 °C (dec.)"}, {"smiles": "Cc1cc(-n2ccc(O)cc2=O)sc1C(=O)NCc1ccccc1", "note": "[Example 7.4, N-Benzyl-5-(4-hydroxy-2-oxopyridin-1(2H)-yl)-3-methylthiophene-2-carboxamide]", "melting point": "98 °C (dec.)"}, {"smiles": "Cc1cc(-n2ccc(O)cc2=O)sc1C(=O)NCc1ccc(F)cc1", "note": "[Example 7.7, N-(4-Fluorobenzyl)-5-(4-hydroxy-2-oxopyridin-1(2H)-yl)-3-methylthiophene-2-carboxamide]", "melting point": "95 °C (dec.)"}, {"smiles": "Cc1cc(-n2ccc(O)cc2=O)sc1C(=O)NCc1cccc(F)c1", "note": "[Example 7.8, N-(3-Fluorobenzyl)-5-(4-hydroxy-2-oxopyridin-1(2H)-yl)-3-methylthiophene-2-carboxamide]", "melting point": "140 to 142 °C"}, {"smiles": "CCNC(=O)c1sc(-n2ccc(O)cc2=O)cc1C", "note": "[Example 7.9, N-Ethyl-5-(4-hydroxy-2-oxopyridin-1(2H)-yl)-3-methylthiophene-2-carboxamide]", "melting point": "183 to 184 °C"}, {"smiles": "Cc1nc(-n2ccc(O)cc2=O)sc1C(=O)NCc1cccnc1", "note": "[Example 7.10, 2-(4-Hydroxy-2-oxopyridin-1(2H)-yl)-4-methyl-N-(pyridin-3-ylmethyl)thiazole-5-carboxamide]", "melting point": "238 to 240 °C"}, {"smiles": "O=C(NCc1ccccc1)c1csc(-n2ccc(OCc3ccccc3)cc2=O)c1", "note": "[Example 8, N-Benzyl-5-(4-(benzyloxy)-2-oxopyridin-1(2H)-yl)thiophene-3-carboxamide]", "melting point": "162 to 163 °C"}, {"smiles": "Cc1cc(-n2ccc(OCc3ccccc3)cc2=O)sc1C(=O)NCc1ccccc1", "note": "[Example 8.1, N-Benzyl-5-(4-(benzyloxy)-2-oxopyridin-1(2H)-yl)-3-methylthiophene-2-carboxamide]", "melting point": "153 to 154 °C"}, {"smiles": "Cc1cc(-n2ccc(OCCC3CC3)cc2=O)sc1C(=O)NCc1ccccc1", "note": "[Example 9, N-Benzyl-5-(4-(2-cyclopropylethoxy)-2-oxopyridin-1(2H)-yl)-3-methylthiophene-2-carboxamide]", "melting point": "134 to 136 °C"}, {"smiles": "Cc1cc(-n2ccc(OCc3ccc(C(F)(F)F)cc3)cc2=O)sc1C(=O)NCc1ccccc1", "note": "[Example 9.1, N-Benzyl-3-methyl-5-(2-oxo-4-(4-(trifluoromethyl)benzyloxy)pyridin-1(2H)-yl)thiophene-2-carboxamide]", "melting point": "225 to 227 °C"}, {"smiles": "Cc1cc(-n2ccc(OCc3ccc(F)cc3)cc2=O)sc1C(=O)NCc1ccccc1", "note": "[Example 9.2, N-Benzyl-5-(4-(4-fluorobenzyloxy)-2-oxopyridin-1(2H)-yl)-3-methylthiophene-2-carboxamide]", "melting point": "195 to 197 °C"}, {"smiles": "Cc1cc(-n2ccc(OCc3ccc(OC(F)F)cc3)cc2=O)sc1C(=O)NCc1ccccc1", "note": "[Example 9.3, N-Benzyl-5-(4-(4-(difluoromethoxy)benzyloxy)-2-oxopyridin-1(2H)-yl)-3-methylthiophene-2-carboxamide]", "melting point": "178 to 180 °C"}, {"smiles": "Cc1cc(-n2ccc(OCCc3ccccc3)cc2=O)sc1C(=O)NCc1ccccc1", "note": "[Example 9.4, N-Benzyl-3-methyl-5-(2-oxo-4-phenethoxypyridin-1(2H)-yl)thiophene-2-carboxamide]", "melting point": "159 to 160 °C"}, {"smiles": "Cc1cc(-n2ccc(OCC3CC3)cc2=O)sc1C(=O)NCc1ccccc1", "note": "[Example 9.5, N-Benzyl-5-(4-(cyclopropylmethoxy)-2-oxopyridin-1(2H)-yl)-3-methylthiophene-2-carboxamide]", "melting point": "175 to 177 °C"}, {"smiles": "Cc1nc(-n2ccc(OCc3ccc(C(F)(F)F)o3)cc2=O)sc1C(=O)NCc1ccccc1", "note": "[Example 9.7]", "melting point": "214 to 216 °C"}, {"smiles": "Cc1nc(-n2ccc(OCc3ccc(C(F)(F)F)cc3)cc2=O)sc1C(=O)NCc1ccccc1", "note": "[Example 9.8, N-Benzyl-4-methyl-2-(2-oxo-4-(4-(trifluoromethyl)benzyloxy)pyridin-1(2H)-yl)thiazole-5-carboxamide]", "melting point": "278 to 280 °C"}, {"smiles": "Cc1nc(-n2ccc(OCc3ccc(OC(F)F)cc3)cc2=O)sc1C(=O)NCc1ccc(F)cc1", "note": "[Example 9.9, 2-(4-(4-(Difluoromethoxy)benzyloxy)-2-oxopyridin-1(2H)-yl)-N-(4-fluorobenzyl)-4-methylthiazole-5-carboxamide]", "melting point": "242 to 244 °C"}, {"smiles": "Cc1nc(-n2ccc(OCC3CCCC3)cc2=O)sc1C(=O)NCc1ccccc1", "note": "[Example 9.10, N-Benzyl-2-(4-(cyclopentylmethoxy)-2-oxopyridin-1(2H)-yl)-4-methylthiazole-5-carboxamide]", "melting point": "196 to 198 °C"}, {"smiles": "COc1ccn(-c2nc(C)c(C(=O)NCc3ccc(F)c(F)c3)s2)c(=O)c1", "note": "[Example 9.11, N-(3,4-Difluorobenzyl)-2-(4-methoxy-2-oxopyridin-1(2H)-yl)-4-methylthiazole-5-carboxamide]", "melting point": "183 to 185 °C"}, {"smiles": "Cc1nc(-n2ccc(OCC3CCCO3)cc2=O)sc1C(=O)NCc1ccccc1", "note": "(centres unmarked) [Example 9.12, N-Benzyl-4-methyl-2-(2-oxo-4-((tetrahydrofuran-2-yl)methoxy)pyridin-1(2H)-yl)thiazole-5-carboxamide]", "melting point": "181 to 183 °C"}, {"smiles": "Cc1nc(-n2ccc(-c3ccc(Cl)cc3)cc2=O)sc1C(=O)NCc1ccccc1", "note": "[Example 10, N-Benzyl-2-(4-(4-chlorophenyl)-2-oxopyridin-1(2H)-yl)-4-methylthiazole-5-carboxamide]", "melting point": "265 to 267 °C"}, {"smiles": "CCOC(=O)c1[nH]c(-n2ccc(OCc3ccccc3)cc2=O)nc1C", "note": "[Example 12.2, Ethyl 2-(4-(benzyloxy)-2-oxopyridin-1(2H)-yl)-4-methyl-1H-imidazole-5-carboxylate]", "melting point": "135 to 136 °C"}, {"smiles": "Cc1nc(-n2ccc(OCc3ccc(C(F)(F)F)o3)cc2=O)sc1C(=O)O", "note": "[Example 13.6]", "melting point": "261 to 263 °C"}, {"smiles": "Cc1nc(-n2ccc(OCc3ccc(F)cc3)cc2=O)sc1C(=O)O", "note": "[Example 13.7, 2-(4-(4-Fluorobenzyloxy)-2-oxopyridin-1(2H)-yl)-4-methylthiazole-5-carboxylic acid]", "melting point": "> 300 °C"}, {"smiles": "CCOC(=O)c1sc(-n2ccc(O)cc2=O)nc1C", "note": "[Example 14, Ethyl 2-(4-Hydroxy-2-oxopyridin-1(2H)-yl)-4-methylthiazole-5-carboxylate]", "melting point": "270 to 273 °C"}, {"smiles": "CCOC(=O)c1sc(-n2ccc(OCC3CC3)cc2=O)nc1C", "note": "[Example 15, Ethyl 2-(4-(Cyclopropylmethoxy)-2-oxopyridin-1(2H)-yl)-4-methylthiazole-5-carboxylate]", "melting point": "180 to 183 °C"}, {"smiles": "CCOC(=O)c1sc(-n2ccc(OC)cc2=O)nc1C", "note": "[Example 15.1, Ethyl 2-(4-Methoxy-2-oxopyridin-1(2H)-yl)-4-methylthiazole-5-carboxylate]", "melting point": "163 to 165 °C"}, {"smiles": "CCOC(=O)c1sc(-n2ccc(OCCC3CC3)cc2=O)nc1C", "note": "[Example 15.2, Ethyl 2-(4-(2-Cyclopropylethoxy)-2-oxopyridin-1(2H)-yl)-4-methylthiazole-5-carboxylate]", "melting point": "188 to 190 °C"}, {"smiles": "CCOC(=O)c1sc(-n2ccc(OCc3ccc(F)cc3)cc2=O)nc1C", "note": "[Example 17.1, Ethyl 2-(4-(4-Fluorobenzyloxy)-2-oxopyridin-1(2H)-yl)-4-methylthiazole-5-carboxylate]", "melting point": "214 to 217 °C"}, {"smiles": "CCOC(=O)c1sc(-n2ccc(OCc3ccc(C(F)(F)F)o3)cc2=O)nc1C", "note": "[Example 17]", "melting point": "196 to 198 °C"}, {"smiles": "Cc1nc(-n2ccc(Oc3ccccc3)cc2=O)sc1C(=O)NCc1ccccc1", "note": "[Example 18, N-Benzyl-4-methyl-2-(2-oxo-4-phenoxypyridin-1(2H)-yl)thiazole-5-carboxamide]", "melting point": "67 to 70 °C"}, {"smiles": "Cc1nc(-n2ccc(CCc3ccccc3)cc2=O)sc1C(=O)NCc1ccccc1", "note": "[Example 19, N-benzyl-4-methyl-2-(2-oxo-4-phenethylpyridine-1(2H)-yl)thiazole-5-carboxamide]", "melting point": "149 to 150 °C"}]}]}
